The record followed here is patent US5573773A, “Stable highly concentrated formulations of fluorescein derivatives” (Ciba Geigy Corporation, priority 1992, dated 1996).

One data set has as its system rabbit lens epithelium. The experiment in a line: cytotoxic effect of irradiation of intracellular fluorescein in vivo on rabbit lens epithelium. How it is done: The cytotoxic effect of the irradiation of intracellular fluorescein with […] laser light (argon) is investigated in vivo on rabbit lens epithelium. This is done by first treating both rabbit eyes with Voltaren® eye drops (3 times over 24 hours) and expanding the pupillae with a mydriatic. The rabbits are operated on under a full anaesthetic. After a small incision of the cornea, the anterior chamber of the eye is thoroughly rinsed for 1 minute with sodium chloride solution (to remove natural chamber water), then slowly rinsed with 5 ml of FDA solution (1 ml/min) and filled, thereafter kept for a further 5 minutes and once more rinsed with sodium chloride solution for 1 minute (to remove excess FDA solution). While washing the chamber with FDA solution, sodium chloride solution is dropped onto the cornea (for rapid dilution and removal of the FDA solution flowing back from the chamber). […] Finally, irradiation (0.92 W to 0.64 W) is carded out for 30 seconds, the circular irradiation surface on the plane of the lens being 95 mm^2 (11 mm diameter). […] All investigated irradiation doses (291 mJ/mm^2 to 19 mJ/mm^2) were effective.

A further data set deals with rabbit eye cornea. The experiment in a line: cytotoxic effect of irradiation of intracellular fluorescein in vivo on rabbit eye cornea. The conditions noted are these: for lowest effective energy for fading effect: 488 nm argon laser. Here is the method:
The cytotoxic effect of the irradiation of intracellular fluorescein with 488 nm laser light (argon) is investigated in vivo on rabbit eye cornea. FDA solution is dropped on to the cornea for 10 minutes, followed by washing with physiological sodium chloride solution. Irradiation is afterwards effected. The intensity of florescence on the cornea rises sharply during this time, then slowly falls to zero over about 5 hours after washing. Irradiation of the fluorescing cornea results in black specks the size of which matches the area irradiated by the laser. The lowest effective energy for this fading effect is about 2.4 J/mm^2 with 0.01 mmol/l of FDA and 0.11 J/mm^2 with 0.02 mmol/l of FDA. […] The lower limit of the irradiation energy for this cytotoxic effect is up to 0.38 mJ/mm^2 (5 seconds and 20 seconds) using 0.02 mmol/l of FDA.

The subject of a further data set is living cells. In words: uptake by living cells. It counts as cell-based. An excerpt: (§1) Fluorescein therefore accumulates temporarily in the cells. […] Intensive irradiation reduces the intensity of fluorescein.
(§2) Loading the intracellular space of cells with fluorescein is, however, complicated by the fact that FDA is also hydrolysed by esterases in the extracellular fluid. The amount of FDA available for cell loading is thereby reduced. For reproducible clinical use it is therefore advisable to lower the concentration of extracellular esterases. This is conveniently done by washing the environment of the particular area which it is desired to treat. A further problem may arise from the fact that the FDA diffuses away from the site of actual use and, as a consequence thereof, is also taken up by cells that are not to be treated at all. This problem can be countered by optimising the local application of FDA as well as the defined irradiation, typically by using a particularly well focussed beam of light.

In a further data set the test system is T4 tumour cells. The conditions noted are these: over 10 minutes.
For data set [1], the system named is human T24 carcinoma cells. In words: intracellular uptake of fluorescein from FDA dissolved in viscous medium Hymecel. The format is cell-based. From the text:
Eight minutes after removal of the viscous solution and washing the cells, the intracellular fluorescein concentration is 0.004 to 0.005 mmol/l after 0.01 mmol/l of FDA, 0.007 to 0.009 mmol/l after 0.02 mmol/l of FDA and 0.019 mmol/l after 0.04 mmol/l of FDA.

Data set [2] relates to human T24 carcinoma cells. In words: intracellular uptake and generation of fluorescein from FDA in T24 carcinoma cells by microscopic fluorimetry.
Description: (§3) After removal of FDA from the tissue culture medium, the generation of fluorescein from the cells can be measured. […] The intensity of fluorescence of intracellular fluorescein fades when the fluorescein is correspondingly excited. The higher the intracellular concentration of fluorescein at a given irradiation energy, the stonger this fading is: the lower level for a fading effect is 0.004 mmol/l of intracellular fluorescein for 71 mJ/mm^2 and 0.002 mmol/l for 560 mJ/mm^2 (irradiation time 120 seconds).
A further data set can be described thus: uptake by living cells. The format is cell-based. The conditions noted are these: living cells; intracellular; read-out: half-life of fluorescein within a cell.
Description: as §1, §2

Data set [3] relates to human T24 carcinoma cells. The experiment in a line: cells. The conditions noted are these: read-out: cells killed. From the text: The cytoxic action of irradiation (excitation 480 nm) of intracellular fluorescein from FDA is investigated using tissue culture of human T24 carcinoma cells. This is done by fluorometric determination of the intracellular fluorescein concentration under a microscope (excitation 480 nm; emission 520 nm) in single cells and the vitality via the uptake of propidium iodide.

The nature of a further data set: in vitro. The conditions noted are these: human, t24 carcinoma cells.
In data set [4] the test system is human T24 carcinoma cells. In words: fading of intracellular fluorescein on irradiation in T24 carcinoma cells. The format is cell-based.

Where two headings read alike, the source gives them in different places.

Description for T4 tumour cells: The higher the extracellular concentration of FDA, the higher the resultant intracellular concentration of fluorescein.
Description for in vitro: as §3

With `CC(=O)Oc1ccc2c(c1)Oc1cc(OC(C)=O)ccc1C21OC(=O)c2ccccc21` [FDA, fluorescein diacetate], the “effectiveness of investigated irradiation doses” value in the data set on rabbit lens epithelium (291 mJ/mm^2 to 19 mJ/mm^2) was “effective”. Also, the “fluorescence of the cornea surface near the incision site” value in the data set on rabbit lens epithelium (FDA solution in anterior chamber) was “fluoresces minimally”. In addition, the “fluorescence of the lens surface after irradiation” value in the data set with rabbit lens epithelium (after irradiation) was “no longer fluoresces”. Further, the “fluorescence of the anterior lens capsule” value in the data set on rabbit lens epithelium (before irradiation, epifluorescent stereomicroscope) is recorded as “constant marked increase of fluorescence”. In addition, in the data set on rabbit lens epithelium (sacrificed about 18 hours later, irradiation 30 seconds), the “histological evaluation of lens in irradiation field” value is “total necrosis of the lens epithelium and microscopically unchanged basal membrane, pyknotic nuclear residues and edematous swelling of the anterior subcapsular area of the lens”. For the same molecule, the “lowest effective energy for fading effect” value was “about 2.4 J/mm^2” in the data set with rabbit eye cornea (0.01 mmol/l of FDA) and 0.11 J/mm^2 with rabbit eye cornea (0.02 mmol/l of FDA). For the same molecule, in the data set with rabbit eye cornea (0.02 mmol/l of FDA, 5 seconds and 20 seconds), the “lower limit of irradiation energy for cytotoxic effect” value is “up to 0.38 mJ/mm^2”. The “time for cornea fluorescence to fall to zero after washing” value in the data set with rabbit eye cornea (FDA solution dropped on cornea for 10 minutes) is on record as “about 5 hours”. Moreover, the “histology of irradiated cornea (black specks)” value in the data set on rabbit eye cornea (irradiated fluorescing cornea) is “areas of dead epithelial cells in the outermost layer of the cornea”. Moreover, the “uptake by living cells” value in the data set on living cells is recorded as “readily taken up by most living cells”. The “plateau concentration of intracellular fluorescein” value in the data set with T4 tumour cells (1 μm FDA solution) is reported as 25 μm; with T4 tumour cells (100 μm FDA solution), 70 μm. Moreover, the intracellular fluorescein concentration in data set [1] (0.04 mmol/l of FDA in Hymecel, 8 minutes after removal and washing) was 0.019 mmol/L; in data set [2] (0.0001 mmol/l of FDA), “no longer measurable”; in data set [2] (0.001 mmol/l of FDA, after 10 minutes) it was 0.004 mmol/L; in data set [2] (0.01 mmol/l of FDA, after 10 minutes), 0.01 mmol/L; in [2] (0.02 mmol/l of FDA, after 10 minutes), 0.015 mmol/L; in [2] (0.04 mmol/l of FDA, after 10 minutes), 0.017 mmol/L. Further, the “increase in intracellular fluorescein concentration and plateau values versus aqueous medium” value in data set [1] (FDA in Hymecel) was “approximately match those after incubation of the cells in aqueous medium”. In addition, the “duration of linear rise of intracellular fluorescein concentration” value in data set [2] (FDA added to medium) is on record as “about 4 minutes”. For the same molecule, the “time to approximately plateau values of intracellular fluorescein concentration” value in data set [2] (FDA added to medium) is reported as “about 10 minutes”.
Regarding `O=C1OC2(c3ccc(O)cc3Oc3cc(O)ccc32)c2ccccc21` [fluorescein], the values for the half-life in “uptake by living cells” and in “in vitro” were around 15 min and 10 to 25 min, respectively. Also, in the data set on living cells, the “uptake by living cells” value is recorded as “virtually not taken up by living cells”. Also, the cytotoxicity at 7 µM in [3] (15 s) amounted to 50%. The cytotoxicity at 13 µM in data set [3] (15 s) stood at 50%. The cytotoxicity at 3 µM in data set [3] (2 min) stood at 50%. Besides, in data set [3] (2 min), the cytotoxicity at 5 µM worked out at 50%. The “fading on irradiation for observation” value in data set [4] (0.1 mW/mm^2, 1 to 10 minutes) was “no measurable fading”. Further, the “lower level of intracellular fluorescein for a fading effect” value in data set [4] (71 mJ/mm^2, irradiation time 120 seconds) stood at 0.004 mmol/L; in data set [4] (560 mJ/mm^2, irradiation time 120 seconds), 0.002 mmol/L. Further, in data set [2] (after removal of FDA from the medium), the “kinetics order of exclusion of fluorescein from the individual cells” value was “first order kinetics”. In addition, the “uptake of pure fluorescein added to the cells” value in data set [2] (pure fluorescein) was “No uptake can be observed”.
